Laboratory results taken from patent publication US20220380347A1, “INHIBITORS OF CYSTEINE PROTEASES AND METHODS OF USE THEREOF” (Pardes Biosciences, Inc., priority 2020, published 2022).
Where two headings read alike, the source gives them in different places.

Key:
229E Mpro = 229E Mpro (Human coronavirus 229E, UniProt P0C6X1); experiment: 229E Mpro enzymatic assay (standard methods, SARS-CoV2 Mpro assay given as exemplary); assay type: biochemical, human coronavirus (HCov) 229E
Method in brief: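 Run by standard methods, with the SARS-CoV-2 Mpro protocol given as the model: E. coli-expressed C-His6 protease at 25 nM and substrate at 25 μM (Km 13.5 μM). Buffer pH 7.3 with 5 mM TCEP and 0.1% BSA; % inhibition versus controls fitted to variable-slope log(inhibitor)-response for IC50.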

[1] = molecular target: COVID-19 (nCoV-2019, SARS-CoV2) Mpro (Severe acute respiratory syndrome coronavirus 2, UniProt P0DTD1); experiment: COVID-19 (nCoV-2019, SARS-CoV2) Mpro enzymatic assay; assay type: biochemical; details: 25 nM Mpro, 25 μM substrate; read-out: COVID-19 Mpro IC50
HCov OC43 = experiment: HCoV OC43 cytopathic effect (CPE) assay, CellTiter Glo; assay type: cell-based, human coronavirus (HCov) OC43
[2] = read-out: OC43 IC50 (uM) MEDIAN, median
[3] = Betacoronavirus 1, OC43, read-out: OC43 IC50 (uM) MEDIAN, median

Chain of 229E Mpro (P0C6X1 2966-3267): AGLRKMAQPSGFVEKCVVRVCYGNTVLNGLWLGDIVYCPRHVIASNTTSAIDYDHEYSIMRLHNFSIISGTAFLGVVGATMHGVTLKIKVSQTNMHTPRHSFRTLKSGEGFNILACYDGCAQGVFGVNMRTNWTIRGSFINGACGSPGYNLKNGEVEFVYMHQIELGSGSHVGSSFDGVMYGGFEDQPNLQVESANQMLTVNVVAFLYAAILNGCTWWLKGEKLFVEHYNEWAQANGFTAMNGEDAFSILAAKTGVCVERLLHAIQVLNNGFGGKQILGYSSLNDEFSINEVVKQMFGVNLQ

SMILES	EC50 (229E Mpro; 229E Mpro EC50) [nM]	IC50 [1] [nM]	IC50 (HCov OC43; [2]) [µM]	EC50 (229E Mpro; read-out: 229E Mpro EC50) [nM]	IC50 (HCov OC43; [3]) [µM]
CO[C@@H]1C[C@H](C(=O)N(c2ccc(C(C)(C)C)cc2)C(C)(C(=O)NC2CCC(F)(F)CC2)c2cnccn2)N(C#N)C1 (single isomer, unassigned) [1198 Isomer 2]	< 2000	< 2000	< 2		
CO[C@@H]1C[C@H](C(=O)N(c2ccc(S(F)(F)(F)(F)F)cc2)C(C(=O)NC2CCC(F)(F)CC2)c2cnccc2C)N(C#N)C1 (single isomer, unassigned) [1199 Isomer 1]		< 2000		< 2000	< 2
CO[C@@H]1C[C@H](C(=O)N(c2ccc(S(F)(F)(F)(F)F)cc2)C(C(=O)NC2CCC(F)(F)CC2)c2cnccc2C)N(C#N)C1 (single isomer, unassigned) [1199 Isomer 2]		< 2000	< 2	< 2000	
CO[C@@H]1C[C@H](C(=O)N(c2ccc(S(F)(F)(F)(F)F)cc2)C(C(=O)NC2CCC(F)(F)CC2)c2cnccc2C(F)(F)F)N(C#N)C1 (single isomer, unassigned) [1202 Isomer 1]	< 2000	< 2000			< 2
CO[C@@H]1C[C@H](C(=O)N(c2ccc(S(F)(F)(F)(F)F)cc2)C(C(=O)NC2CCC(F)(F)CC2)c2cnccc2C(F)(F)F)N(C#N)C1 (single isomer, unassigned) [1202 Isomer 2]		< 2000	< 2	< 2000	
CO[C@@H]1C[C@H](C(=O)N(c2ccc(C(C)(C)C)cc2F)C(C(=O)NC2CCC(F)(F)CC2)c2cncc(F)c2)N(C#N)C1 (single isomer, unassigned) [1207 Isomer 1]	10000 to 30000	2000 to 10000	10 to 30		
CO[C@@H]1C[C@H](C(=O)N(c2ccc(C(C)(C)C)cc2F)C(C(=O)NC2CCC(F)(F)CC2)c2cncc(F)c2)N(C#N)C1 (single isomer, unassigned) [1207 Isomer 2]	> 30000	> 30000	> 30		
C[C@H]1CN(C#N)[C@H]1C(=O)N(c1ccc(S(F)(F)(F)(F)F)cc1)C(C(=O)NC1CCC(F)(F)CC1)c1cncc(F)c1 (single isomer, unassigned) [1210 Isomer 1]	< 2000	10000 to 30000	10 to 30		
C[C@H]1CN(C#N)[C@H]1C(=O)N(c1ccc(S(F)(F)(F)(F)F)cc1)C(C(=O)NC1CCC(F)(F)CC1)c1cncc(F)c1 (single isomer, unassigned) [1210 Isomer 2]		< 2000	< 2	< 2000	
C[C@@H]1CN(C#N)[C@H]1C(=O)N(c1ccc(S(F)(F)(F)(F)F)cc1)C(C(=O)NC1CCC(F)(F)CC1)c1cncc(F)c1 (single isomer, unassigned) [1211 Isomer 1]	< 2000	2000 to 10000			< 2
C[C@@H]1CN(C#N)[C@H]1C(=O)N(c1ccc(S(F)(F)(F)(F)F)cc1)C(C(=O)NC1CCC(F)(F)CC1)c1cncc(F)c1 (single isomer, unassigned) [1211 Isomer 2]		< 2000	< 2	< 2000	
CC(C)(C)c1ccc(N(C(=O)[C@H]2[C@H](F)CCN2C#N)C(C(=O)NC2CCC(F)(F)CC2)c2cncc(F)c2)cc1 (single isomer, unassigned) [1212 Isomer 1]	< 2000	< 2000			< 2
CC(C)(C)c1ccc(N(C(=O)[C@H]2[C@H](F)CCN2C#N)C(C(=O)NC2CCC(F)(F)CC2)c2cncc(F)c2)cc1 (single isomer, unassigned) [1212 Isomer 2]		< 2000	< 2	< 2000	
CO[C@@H]1C[C@H](C(=O)N(c2ccc(C(C)(C)C)cc2)C(C)(C(=O)NC2CCCCC2)c2cccnc2)N(C#N)C1 (single isomer, unassigned) [1230 Isomer 1]	2000 to 10000	> 30000	> 30		
CO[C@@H]1C[C@H](C(=O)N(c2ccc(C(C)(C)C)cc2)C(C)(C(=O)NC2CCCCC2)c2cccnc2)N(C#N)C1 (single isomer, unassigned) [1230 Isomer 2]	< 2000	< 2000	< 2		
CO[C@@H]1C[C@H](C(=O)N(c2ccc(C(C)(C)C)cc2)C(C)(C(=O)NC2CCC(F)(F)CC2)c2cccnc2)N(C#N)C1 (single isomer, unassigned) [1232 Isomer 1]	2000 to 10000	2000 to 10000			2 to 10
CO[C@@H]1C[C@H](C(=O)N(c2ccc(C(C)(C)C)cc2)C(C)(C(=O)NC2CCC(F)(F)CC2)c2cccnc2)N(C#N)C1 (single isomer, unassigned) [1232 Isomer 2]	< 2000	< 2000	< 2		
CO[C@@H]1C[C@H](C(=O)N(c2ccc(S(F)(F)(F)(F)F)cc2)C(C)(C(=O)NC2CCC(F)(F)CC2)c2cccnc2)N(C#N)C1 (single isomer, unassigned) [1259 Isomer 1]	< 2000	2000 to 10000			2 to 10
CO[C@@H]1C[C@H](C(=O)N(c2ccc(S(F)(F)(F)(F)F)cc2)C(C(=O)NC2CCC(F)(F)CC2)c2cncc(F)c2)N(C#N)C1 (single isomer, unassigned) [1265 Isomer 1]	< 2000	< 2000			< 2
CO[C@@H]1C[C@H](C(=O)N(c2ccc(S(F)(F)(F)(F)F)cc2)C(C(=O)NC2CCC(F)(F)CC2)c2cncc(F)c2)N(C#N)C1 (single isomer, unassigned) [1265 Isomer 2]		< 2000	< 2	< 2000	
N#CN1C[C@@H](OCc2ccccc2)C[C@@H]1C(=O)N(c1ccc(S(F)(F)(F)(F)F)cc1)C(C(=O)NC1CCC(F)(F)CC1)c1cncc(F)c1 (single isomer, unassigned) [1280 Isomer 1]	< 2000	< 2000			< 2
N#CN1C[C@@H](OCc2ccccc2)C[C@@H]1C(=O)N(c1ccc(S(F)(F)(F)(F)F)cc1)C(C(=O)NC1CCC(F)(F)CC1)c1cncc(F)c1 (single isomer, unassigned) [1280 Isomer 2]	2000 to 10000	> 30000	2 to 10		
CO[C@@H]1C[C@H](C(=O)N(c2ccc(S(F)(F)(F)(F)F)cc2F)C(C(=O)NC2CCC(F)(F)CC2)c2cccnc2)N(C#N)C1 (single isomer, unassigned) [1288 Isomer 1]	< 2000	< 2000			< 2
CO[C@@H]1C[C@H](C(=O)N(c2ccc(S(F)(F)(F)(F)F)cc2F)C(C(=O)NC2CCC(F)(F)CC2)c2cccnc2)N(C#N)C1 (single isomer, unassigned) [1288 Isomer 2]		< 2000	2 to 10	< 2000	
N#CN1C[C@H](O)C[C@@H]1C(=O)N(c1ccc(S(F)(F)(F)(F)F)cc1F)C(C(=O)NC1CCC(F)(F)CC1)c1cccnc1 (single isomer, unassigned) [1288a Isomer 1]	< 2000	< 2000			< 2
N#CN1C[C@H](O)C[C@@H]1C(=O)N(c1ccc(S(F)(F)(F)(F)F)cc1F)C(C(=O)NC1CCC(F)(F)CC1)c1cccnc1 (single isomer, unassigned) [1288a Isomer 2]		2000 to 10000	2 to 10	< 2000	
N#CC1(C(=O)N(c2ccc(S(F)(F)(F)(F)F)cc2)C(C(=O)NC2CCC(F)(F)CC2)c2cncc(F)c2)CC1 (single isomer, unassigned) [1289 Isomer 1, 1-cyano-N-[2-[(4,4-difluorocyclohexyl)amino]-1-(5-fluoro-3-pyridyl)-2-oxo-ethyl]-N-[4-(pentafluoro-λ^6-sulfanyl)phenyl]cyclopropanecarboxamide]	> 30000	> 30000			> 30
N#CC1(C(=O)N(c2ccc(S(F)(F)(F)(F)F)cc2)C(C(=O)NC2CCC(F)(F)CC2)c2cncc(F)c2)CC1 (single isomer, unassigned) [1289 Isomer 2, 1-cyano-N-[2-[(4,4-difluorocyclohexyl)amino]-1-(5-fluoro-3-pyridyl)-2-oxo-ethyl]-N-[4-(pentafluoro-λ^6-sulfanyl)phenyl]cyclopropanecarboxamide]		> 30000	> 30	> 30000	
CO[C@@H]1C[C@H](C(=O)N(c2ccc(S(F)(F)(F)(F)F)cc2)C(C(=O)NCC2(C)CCCN(C(=O)OC(C)(C)C)C2)c2cccnc2)N(C#N)C1 (single isomer, unassigned) [1290 Isomer 1]	< 2000	< 2000			2 to 10
